Molecular target: unphosphorylated-BTK kinase domain (UP-BTK), GST-tagged human BTK (389-659aa) (Homo sapiens (Human), UniProt Q06187)
Experiment: BTK Kinase Lanthascreen Binding Assay
Conditions: for BTK_I_binding pIC50: pIC50 = negative log of the IC50 in molar; for IC50: read-out: BTK_I_binding pIC50 (converted)
Protocol: BTK Kinase Lanthascreen Binding Assay:
A BTK kinase lanthascreen binding assay monitors compound binding to unphosphorylated-BTK kinase domain (UP-BTK), by competing with a fluorescent labeled tracer. […] Data were analyzed using Xlfit™ version 5.3 from ID Business Solutions (Guildford), Microsoft Excel add-in. pIC50 refers to the negative log of the IC50 in molar.

[1] = compound, 50 nM Tracer 236, 2 nM anti-GST antibody, 60 minutes
[2] = Lanthascreen binding, 60 minutes incubation

Chain of unphosphorylated-BTK kinase domain (UP-BTK), GST-tagged human BTK (389-659aa) (Q06187 389-659): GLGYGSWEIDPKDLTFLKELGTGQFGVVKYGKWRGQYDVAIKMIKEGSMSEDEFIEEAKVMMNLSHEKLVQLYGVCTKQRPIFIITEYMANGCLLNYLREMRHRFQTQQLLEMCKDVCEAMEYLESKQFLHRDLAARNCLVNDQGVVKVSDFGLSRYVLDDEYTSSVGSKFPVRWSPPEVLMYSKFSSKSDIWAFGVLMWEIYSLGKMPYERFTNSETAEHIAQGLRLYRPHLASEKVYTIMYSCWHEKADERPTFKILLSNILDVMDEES

Row | SMILES | BTK_I_binding pIC50 [1] | BTK_I_binding pIC50 [2] | also measured
1 | C=CC(=O)N[C@H]1CCC[C@H]1NC(=O)c1sc2nccc3c2c1NC(=O)N3c1ccc(Oc2ccccn2)cc1C [Example 220, N-((1R,2S)-2-acrylamidocyclopentyl)-5-(2-methyl-4-(pyridin-2-yloxy)phenyl)-4-oxo-4,5-dihydro-3H-1-thia-3,5,8-triazaacenaphthylene-2-carboxamide] | 8.16 |  | 
2 | C=CC(=O)N[C@H]1CCC[C@H]1NC(=O)c1sc2nccc3c2c1NC(=O)N3c1ccc(Oc2ccccc2)cc1C (single isomer, unassigned) [Example 107, N-((1R,2S)-2-Acrylamidocyclopentyl)-5-(*S)-(2-methyl-4-phenoxyphenyl)-4-oxo-4,5-dihydro-3H-1-thia-3,5,8-triazaacenaphthylene-2-carboxamide] | 8.25 |  | 
3 | CC(=O)N[C@H]1CCC[C@H]1NC(=O)c1sc2nccc3c2c1NC(=O)N3c1ccc(Oc2ccccc2)cc1 [Example 396, N-((1R,2S)-2-Acetamidocyclopentyl)-4-oxo-5-(4-phenoxyphenyl)-4,5-dihydro-3H-1-thia-3,5,8-triazaacenaphthylene-2-carboxamide] |  | 6.66 | 
4 | C=CC(=O)N[C@H]1CC[C@@H](NC(=O)c2sc3nccc4c3c2NC(=O)N4c2ccc(Oc3ccccc3)cc2C)CC1 [Example 3, N-((1S,4S)-4-Acrylamidocyclohexyl)-5-(2-methyl-4-phenoxyphenyl)-4-oxo-4,5-dihydro-3H-1-thia-3,5,8-triazaacenaphthylene-2-carboxamide] | 7.42 |  | 
5 | Cc1cc(Oc2ccccc2)ccc1N1C(=O)Nc2c(C(=O)N3CC[C@H](N(C)C)C3)sc3nccc1c23 [Example 421, (S)-2-(3-(Dimethylamino)pyrrolidine-1-carbonyl)-5-(2-methyl-4-phenoxyphenyl)-3H-1-thia-3,5,8-triazaacenaphthylen-4(5H)-one] |  | 5.66 | 
6 | C=CC(=O)N[C@H]1CCC[C@H]1NC(=O)c1sc2nccc3c2c1NC(=O)N3c1ccc(Oc2cccnc2C)cn1 [Example 493, N-((1R,2S)-2-Acrylamidocyclopentyl)-5-(5-((2-methylpyridin-3-yl)oxy)pyridin-2-yl)-4-oxo-4,5-dihydro-3H-1-thia-3,5,8-triazaacenaphthylene-2-carboxamide] |  | 7.32 | 
7 | C=CC(=O)N[C@H]1CCC[C@H]1NC(=O)c1sc2nccc3c2c1NC(=O)N3c1ccc(OC2CCOCC2)cc1C (single isomer, unassigned) [Example 304, N-((1R,2S)-2-Acrylamidocyclopentyl)-5-(*S)-(2-methyl-4-((tetrahydro-2H-pyran-4-yl)oxy)phenyl)-4-oxo-4,5-dihydro-3H-1-thia-3,5,8-triazaacenaphthylene-2-carboxamide] |  | 7.48 | 
8 | Cc1cc(Oc2ccccc2)ccc1N1C(=O)Nc2c(C(=O)N[C@H]3CCC[C@H](NC(=O)CN(C)C)C3)sc3nccc1c23 (single isomer, unassigned) [Example 252, N-((1R,3S)-3-(2-(Dimethylamino)acetamido)cyclohexyl)-5-(*S)-(2-methyl-4-phenoxyphenyl)-4-oxo-4,5-dihydro-3H-1-thia-3,5,8-triazaacenaphthylene-2-carboxamide] | 6.63 |  | 
9 | C=CC(=O)N[C@H]1CC[C@@H](NC(=O)c2sc3nccc4c3c2NC(=O)N4c2cnc(OC(C)C)cc2C)C1 (single isomer, unassigned) [Example 427, N-((1R,3S)-3-Acrylamidocyclopentyl)-5-(*S)-(6-isopropoxy-4-methylpyridin-3-yl)-4-oxo-4,5-dihydro-3H-1-thia-3,5,8-triazaacenaphthylene-2-carboxamide] |  | 7.88 | 
10 | CNC/C=C/C(=O)N[C@H]1CC[C@@H](NC(=O)c2sc3nccc4c3c2NC(=O)N4c2ccc(Oc3ccccc3)cc2C)CC1 [Example 78, 5-(2-Methyl-4-phenoxyphenyl)-N-((1S,4S)-4-((E)-4-(methylamino)but-2-enamido)cyclohexyl)-4-oxo-4,5-dihydro-3H-1-thia-3,5,8-triazaacenaphthylene-2-carboxamide] | 6.55 |  | 
11 | Cc1cc(Oc2cccc(COc3ccccc3C#N)c2)ccc1N1C(=O)Nc2c(C(=O)NC3CCCCC3)sc3nccc1c23 [Example 460, 5-(4-(3-((2-Cyanophenoxy)methyl)phenoxy)-2-methylphenyl)-N-cyclohexyl-4-oxo-4,5-dihydro-3H-1-thia-3,5,8-triazaacenaphthylene-2-carboxamide] |  | 6.78 | 
12 | C=CC(=O)N[C@@H]1CCC[C@@H](NC(=O)c2sc3nccc4c3c2NC(=O)N4c2cnc(Oc3ccccc3)cc2C)C1 (single isomer, unassigned) [Example 332, N-((1*R,3*R)-3-Acrylamidocyclohexyl)-5-(*S)-(4-methyl-6-phenoxypyridin-3-yl)-4-oxo-4,5-dihydro-3H-1-thia-3,5,8-triazaacenaphthylene-2-carboxamide] |  | 6.60 | 
13 | C=CC(=O)N[C@H]1CCC[C@H](NC(=O)c2sc3nccc4c3c2NC(=O)N4c2ccnc(-c3ccccc3)c2)C1 [Example 279, N-((1S,3S)-3-Acrylamidocyclohexyl)-4-oxo-5-(2-phenylpyridin-4-yl)-4,5-dihydro-3H-1-thia-3,5,8-triazaacenaphthylene-2-carboxamide] |  |  | IC50: > 1000 nM
14 | Cc1cc(Oc2ccccc2)ccc1N1C(=O)Nc2c(C(=O)N[C@@H]3CCC[C@@H]3O)sc3nccc1c23 [Example 6, N-((1R,2S)-2-Hydroxycyclopentyl)-5-(2-methyl-4-phenoxyphenyl)-4-oxo-4,5-dihydro-3H-1-thia-3,5,8-triazaacenaphthylene-2-carboxamide] | 7.48 |  | 
15 | Cc1cc(Oc2ccccc2)ccc1N1C(=O)Nc2c(C(=O)N[C@@H]3CC[C@H](N)C3)sc3nccc1c23 (single isomer, unassigned) [Example 240, N-((1R,3S)-3-Aminocyclopentyl)-5-(*S)-(2-methyl-4-phenoxyphenyl)-4-oxo-4,5-dihydro-3H-1-thia-3,5,8-triazaacenaphthylene-2-carboxamide] | 6.72 |  | 
16 | C=CC(=O)N[C@@H]1CC[C@H](NC(=O)c2sc3nccc4c3c2NC(=O)N4c2ccc(Oc3ccccc3)cc2C)C1 (single isomer, unassigned) [Example 101, N-((1S,3R)-3-Acrylamidocyclopentyl)-5-(*S)-(2-methyl-4-phenoxyphenyl)-4-oxo-4,5-dihydro-3H-1-thia-3,5,8-triazaacenaphthylene-2-carboxamide] | 7.95 |  | 
17 | CCC(=O)N[C@H]1CCC[C@H](NC(=O)c2sc3nccc4c3c2NC(=O)N4c2cnc(Oc3ccccc3)cc2C)C1 (single isomer, unassigned) [Example 416, 5-(*S)-(4-Methyl-6-phenoxypyridin-3-yl)-4-oxo-N-((1S,3R)-3-propionamidocyclohexyl)-4,5-dihydro-3H-1-thia-3,5,8-triazaacenaphthylene-2-carboxamide] |  |  | IC50: > 1000 nM
18 | N[C@H]1CC[C@@H](NC(=O)c2sc3nccc4c3c2NC(=O)N4c2ccc(Oc3ccccc3)cc2)CC1 [Example 145, N-((1S,4S)-4-Aminocyclohexyl)-4-oxo-5-(4-phenoxyphenyl)-4,5-dihydro-3H-1-thia-3,5,8-triazaacenaphthylene-2-carboxamide] | 6.69 |  | 
19 | Cc1cc(Oc2ccccc2)ccc1N1C(=O)Nc2c(C(=O)N[C@H]3CCC[C@H]3N)sc3nccc1c23 (single isomer, unassigned) [Example 452, N-((1S,2R)-2-Aminocyclopentyl)-5-(*S)-(2-methyl-4-phenoxyphenyl)-4-oxo-4,5-dihydro-3H-1-thia-3,5,8-triazaacenaphthylene-2-carboxamide] |  | 6.38 | 
20 | Cc1cc(OCC(C)C)ncc1N1C(=O)Nc2c(C(=O)N[C@@H]3CC[C@H](N)C3)sc3nccc1c23 (single isomer, unassigned) [Example 405, N-((1R,3S)-3-Aminocyclopentyl)-5-(*S)-(6-isobutoxy-4-methylpyridin-3-yl)-4-oxo-4,5-dihydro-3H-1-thia-3,5,8-triazaacenaphthylene-2-carboxamide] |  | 6.16 | 
21 | Cc1cc(OC(C)C)ccc1N1C(=O)Nc2c(C(=O)N[C@H]3CC[C@@H](NC(=O)/C=C/CN(C)C)C3)sc3nccc1c23 [Example 153, N-((1S,3R)-3-((E)-4-(Dimethylamino)but-2-enamido)cyclopentyl)-5-(4-isopropoxy-2-methylphenyl)-4-oxo-4,5-dihydro-3H-1-thia-3,5,8-triazaacenaphthylene-2-carboxamide] | 6.44 |  | 
22 | N[C@H]1CCC[C@@H]1NC(=O)c1sc2nccc3c2c1NC(=O)N3c1ccc(Oc2ccccc2)cc1 [Example 148, N-((1S,2S)-2-Aminocyclopentyl)-4-oxo-5-(4-phenoxyphenyl)-4,5-dihydro-3H-1-thia-3,5,8-triazaacenaphthylene-2-carboxamide] | 6.47 |  | 
23 | C=CC(=O)N[C@@H]1CCC[C@H](NC(=O)c2sc3nccc4c3c2NC(=O)N4c2ccc(Oc3ccccc3)cc2C)C1 (single isomer, unassigned) [Example 176, N-((1S,3R)-3-Acrylamidocyclohexyl)-5-(*S)-(2-methyl-4-phenoxyphenyl)-4-oxo-4,5-dihydro-3H-1-thia-3,5,8-triazaacenaphthylene-2-carboxamide] | 7.78 |  | 
24 | C=CC(=O)N[C@H]1CCC[C@H]1NC(=O)c1sc2nccc3c2c1NC(=O)N3c1ccc(Oc2cccnc2)cn1 [Example 491, N-((1R,2S)-2-Acrylamidocyclopentyl)-4-oxo-5-(5-(pyridin-3-yloxy)pyridin-2-yl)-4,5-dihydro-3H-1-thia-3,5,8-triazaacenaphthylene-2-carboxamide] |  | 7.43 | 

Reference: patent US10934310B2, “Inhibitors of Bruton's tyrosine kinase and method of their use” (JANSSEN PHARMACEUTICA NV, priority 2015, dated 2021)
